Patent US20160030318A1, “HIGHLY BIOAVAILABLE Na-ACYL ACIDIC AMINO ACID ESTER SALT COMPOSITONS WITH ZWITTERIONIC SURFACTANTS” (JOHNSON & JOHNSON CONSUMER INC., priority 2014, published 2016)

Tests used:
[1] = Disc Retention Assay (DRA) for LAE bioavailability; type: in vitro ADME
Excerpt: Procedure for Determining Bioavailability
Lanzalaco. Availability Testing of Cetylpyridinium Chloride Mouthrinses. […] Mar. 19-23, 1997.
Cellulose Filter disks (Schleicher and Schuell #740-E)
24-well culture plate (Corning 3526)
Vacuum pulled filtration system
0.1% Acid Fuschin dye solution (w/v)
20% p-toluenesulfonic acid solution (w/v)
Spectrophotometer (Molecular Devices—SpectraMAX 190)
10. […] Vortexed solution.
12. Read absorbance spectrophotometrically at 545 nm.

[2] = test system: Escherichia, Pseudomonas aeruginosa, Proteus vulgarus, Staphylococcus aureus, Bacillus substilis, Candida albicans and Aspergillus niger; details: disclosed in GB 1352420; cited from earlier work
[3] = described in JP 57-165305; cited from earlier work

Substance: Cocamidopropyl Betaine
- BA ± SE with LAE [1]: 86.1 ± 2.8%
- BA ± SE without LAE [1]: 27.6 ± 15.0%
- Impact of surfactant on LAE bioavailability [1]: did not negatively impact bioavailability

Substance: N^α-cocoyl-L-arginine ethyl ester pyrrolidone carboxylate
- bactericidal activity [2]: bactericidal activity
- bacteriocidal activity [3]: weak bacteriocidal activity

Substance: N^α-cocoyl-L-arginine methyl ester pyrrolidone carboxylate
- bactericidal activity [2]: bactericidal activity

Substance: Poloxamer 407
- BA ± SE with LAE [1]: 35.9 ± 5.2%
